Columns and labels:
human OAT1 = biological target: T1, human OAT1 (Homo sapiens, UniProt Q4U2R8); experiment: Uptake transporter substrate feasibility assay, OAT1; assay type: in vitro ADME; set-up: key to Substrate: NIO: No interaction observed
T1 construct: expressed in transfected cells; host or cells: CHO (protocol UPT-CHO-OAT1-Tenofovir; control: parental CHO-K1)
T1 sequence (Q4U2R8 1-563): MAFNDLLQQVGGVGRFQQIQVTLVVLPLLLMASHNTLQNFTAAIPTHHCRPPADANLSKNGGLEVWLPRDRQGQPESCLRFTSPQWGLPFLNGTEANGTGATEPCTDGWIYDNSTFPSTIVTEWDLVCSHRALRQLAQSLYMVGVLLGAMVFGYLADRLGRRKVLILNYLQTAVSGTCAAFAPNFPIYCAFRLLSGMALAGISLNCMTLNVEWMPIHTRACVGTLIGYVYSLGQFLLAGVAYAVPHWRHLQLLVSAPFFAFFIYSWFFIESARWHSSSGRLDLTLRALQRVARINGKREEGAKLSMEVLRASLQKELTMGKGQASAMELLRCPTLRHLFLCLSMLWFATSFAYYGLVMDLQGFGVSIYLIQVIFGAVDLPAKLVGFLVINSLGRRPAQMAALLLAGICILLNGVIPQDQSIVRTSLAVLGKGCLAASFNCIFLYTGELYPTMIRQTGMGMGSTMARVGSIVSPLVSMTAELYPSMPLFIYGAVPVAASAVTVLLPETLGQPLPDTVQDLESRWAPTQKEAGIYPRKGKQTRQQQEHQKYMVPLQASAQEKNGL
Protocol: Uptake experiments were performed using CHO, MDCKII, or HEK293 cells stably expressing the respective uptake transporters.
Cells were cultured at 37±1° C. in an atmosphere of 95:5 air:CO2 as described in Table 4 and were plated onto standard 24-well tissue culture plates at 2×10^5 cells/well. The uptake of the TA was determined using cells overexpressing the respective uptake transporter and control cells, at two incubation time points (2 and 20 min) and at two concentrations (1 and 10 μM) of TA to determine whether or not the TA was actively taken up into the cells.
Before the experiment, the medium was removed and the cells were washed twice with 300 μl of HK buffer (pH 7.4) (prepared from Sigma chemicals). Cellular uptake of TA into the cells was measured by adding 300 μl of HK buffer containing TA and incubating them at 37±1° C. Reactions were quenched by removing the HK buffer containing the TA and the cells were washed twice with 300 μl of HK buffer. Cells were lysed by adding 300 μl of MeOH:H2O (2:1) and incubated for 20 minutes at 4±1° C. The amount of TA in the cell lysate was determined by LC-MS/MS. The amount of protein in each well was quantified using the BCA kit for protein determination (Sigma-Aldrich, St Louis, Mo., USA). Uptake of the probe substrate in control cells provided background activity values for all data points. Incubation without reference inhibitor (solvent only) provided 100% activity values. A reference inhibitor served as positive control for inhibition.
The fold accumulation value was defined as the ratio of uptake of TA or probe substrate into transfected and control cells:
[formula] UPTTRP: accumulated amount of TA or probe substrate in transfected cells normalized by protein content [pmol/mg protein] UPTCTL: accumulated amount of TA or probe substrate in control cells normalized by protein content [pmol/mg protein]
If the fold accumulation is >2 and can be inhibited by a known inhibitor of the transporter, the TA can be considered to be a substrate of the respective transporter.

OATP1B3 = biological target: T2, OATP1B3 (Homo sapiens, UniProt Q9NPD5); experiment: Substrate statement, OATP1B3; assay type: in vitro ADME
T2 sequence (Q9NPD5 1-702): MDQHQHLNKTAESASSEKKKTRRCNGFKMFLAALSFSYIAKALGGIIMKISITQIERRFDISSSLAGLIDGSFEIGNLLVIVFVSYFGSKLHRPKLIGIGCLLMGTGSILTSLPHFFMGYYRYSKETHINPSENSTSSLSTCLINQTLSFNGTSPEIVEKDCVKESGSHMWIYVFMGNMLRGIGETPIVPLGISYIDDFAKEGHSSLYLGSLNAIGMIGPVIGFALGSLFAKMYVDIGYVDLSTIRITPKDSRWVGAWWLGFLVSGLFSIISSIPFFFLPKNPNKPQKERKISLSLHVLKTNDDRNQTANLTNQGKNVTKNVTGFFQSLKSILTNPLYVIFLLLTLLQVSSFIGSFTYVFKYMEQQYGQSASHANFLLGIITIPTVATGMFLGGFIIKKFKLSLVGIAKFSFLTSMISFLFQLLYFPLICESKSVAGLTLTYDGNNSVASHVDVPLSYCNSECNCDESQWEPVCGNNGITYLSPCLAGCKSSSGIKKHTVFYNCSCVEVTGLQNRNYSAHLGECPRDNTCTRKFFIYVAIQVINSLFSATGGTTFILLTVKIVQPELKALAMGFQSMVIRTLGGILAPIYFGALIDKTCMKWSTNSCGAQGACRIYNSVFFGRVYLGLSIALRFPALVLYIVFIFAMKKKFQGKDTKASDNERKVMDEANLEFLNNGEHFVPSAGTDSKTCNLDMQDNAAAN

[1] = Kinetic solubility assessment in the assay buffers; assay type: physicochemical; conditions: aqueous buffer, kinetic from dmso stock, 37° C.
Protocol: The aqueous solubility of the TA was determined by spectrophotometric measurements in combination with optical microscopy evaluation (5 and 10× magnification). […] The timeframe of the solubility assessment covered the incubation time of the corresponding in vitro experiment.
A stock solution and dilution series (5-step, 2-fold dilution series) of TA were prepared in water. Stock solutions were mixed with the appropriate assay buffers in a 96-wells plate and incubated for 10 minutes at 37° C. before the solutions were evaluated at 500 nm. […] Therefore, to be considered soluble at a given concentration, the background corrected absorbance of the TA solution must be less than 0.030 absorbance units (ΔA=Asolution−Ablank <0.030). The background corrected absorbance value for each solution was determined.

[2] = Physical properties of the drug substance; assay type: physicochemical
[3] = in vivo; cited from earlier work
[4] = cited from earlier work

For `[O-][n+]1cccc(C(Cl)=NOCC(O)CN2CCCCC2)c1` (stereo not shown) [Arimoclomol, N-[2-hydroxy-3-(1-piperidinyl)-propoxy]-pyridine-1-oxide-3-carboximidoyl chloride], the “Substrate of the transporter (in words)” value (human OAT1) was “not a substrate”, the Fold accumulation (human OAT1; 1 μM, 2 min) was 0.77 and the Fold accumulation (human OAT1; 1 μM, 20 min) was 0.75. For the same compound, the Fold accumulation (human OAT1; 10 μM, 2 min) was 0.56, the Fold accumulation (human OAT1; 10 μM, 20 min) was 0.73 and the Fold accumulation (human OAT1; 1 and 10 μM, 2 and 20 min) was under 2. For the same compound, the Substrate (human OAT1; Table 2) was “NIO”, the “Substrate of the transporter (in words)” value (OATP1B3) was “not a substrate” and the solubility at 10 min [1] was at least 300 µM. For the same compound, the “Carr's Index” value ([2]; drug substance) was 44.4%, the bulk density ([2]; drug substance) was 0.214 g/cm3 and the tapped density ([2]; following 250 taps) was 0.386 g/cm3. The plasma half-life [3] was 2 to 4 h, the maximum tolerated dose ([4]; healthy human volunteers) was “no maximum tolerated dose has been reached” and the safety and tolerability ([4]; oral single ascending or repeated doses 50 to 800 mg, 261 subjects) was “safe and well-tolerated”. For the same compound, the serum creatinine levels ([4]; single- and multiple-dose Phase I studies) was “slight and reversible increases”.
